According to paper PMC5562840, “TRPM6 and TRPM7 differentially contribute to the relief of heteromeric TRPM6/7 channels from inhibition by cytosolic Mg^2+ and Mg·ATP” (Scientific Reports, 2017):

Experiments:
mTRPM7 = molecular target: T1, mTRPM7 (Mus musculus, UniProt Q923J1); assay: whole-cell patch clamp, intracellular dose response ([…] free Mg2+); assay type: cell-based
T1 construct: gene Trpm7; full-length mTRPM7 in pIRES2-EGFP, HEK 293 cells

[1] = molecular target: mouse TRPM7 (mTRPM7) fused to a myc tag (mTRPM7-myc) (mouse) (UniProt Q923J1)
mTRPM6 = molecular target: T2, mTRPM6 (Mus musculus, UniProt Q8CIR4); assay: whole-cell patch clamp; […] inhibits currents; assay type: cell-based
T2 construct: gene Trpm6; full-length mTRPM6 (2028 aa) in pIRES2-EGFP, HEK 293 cells
T2 sequence (Q8CIR4 whole entry): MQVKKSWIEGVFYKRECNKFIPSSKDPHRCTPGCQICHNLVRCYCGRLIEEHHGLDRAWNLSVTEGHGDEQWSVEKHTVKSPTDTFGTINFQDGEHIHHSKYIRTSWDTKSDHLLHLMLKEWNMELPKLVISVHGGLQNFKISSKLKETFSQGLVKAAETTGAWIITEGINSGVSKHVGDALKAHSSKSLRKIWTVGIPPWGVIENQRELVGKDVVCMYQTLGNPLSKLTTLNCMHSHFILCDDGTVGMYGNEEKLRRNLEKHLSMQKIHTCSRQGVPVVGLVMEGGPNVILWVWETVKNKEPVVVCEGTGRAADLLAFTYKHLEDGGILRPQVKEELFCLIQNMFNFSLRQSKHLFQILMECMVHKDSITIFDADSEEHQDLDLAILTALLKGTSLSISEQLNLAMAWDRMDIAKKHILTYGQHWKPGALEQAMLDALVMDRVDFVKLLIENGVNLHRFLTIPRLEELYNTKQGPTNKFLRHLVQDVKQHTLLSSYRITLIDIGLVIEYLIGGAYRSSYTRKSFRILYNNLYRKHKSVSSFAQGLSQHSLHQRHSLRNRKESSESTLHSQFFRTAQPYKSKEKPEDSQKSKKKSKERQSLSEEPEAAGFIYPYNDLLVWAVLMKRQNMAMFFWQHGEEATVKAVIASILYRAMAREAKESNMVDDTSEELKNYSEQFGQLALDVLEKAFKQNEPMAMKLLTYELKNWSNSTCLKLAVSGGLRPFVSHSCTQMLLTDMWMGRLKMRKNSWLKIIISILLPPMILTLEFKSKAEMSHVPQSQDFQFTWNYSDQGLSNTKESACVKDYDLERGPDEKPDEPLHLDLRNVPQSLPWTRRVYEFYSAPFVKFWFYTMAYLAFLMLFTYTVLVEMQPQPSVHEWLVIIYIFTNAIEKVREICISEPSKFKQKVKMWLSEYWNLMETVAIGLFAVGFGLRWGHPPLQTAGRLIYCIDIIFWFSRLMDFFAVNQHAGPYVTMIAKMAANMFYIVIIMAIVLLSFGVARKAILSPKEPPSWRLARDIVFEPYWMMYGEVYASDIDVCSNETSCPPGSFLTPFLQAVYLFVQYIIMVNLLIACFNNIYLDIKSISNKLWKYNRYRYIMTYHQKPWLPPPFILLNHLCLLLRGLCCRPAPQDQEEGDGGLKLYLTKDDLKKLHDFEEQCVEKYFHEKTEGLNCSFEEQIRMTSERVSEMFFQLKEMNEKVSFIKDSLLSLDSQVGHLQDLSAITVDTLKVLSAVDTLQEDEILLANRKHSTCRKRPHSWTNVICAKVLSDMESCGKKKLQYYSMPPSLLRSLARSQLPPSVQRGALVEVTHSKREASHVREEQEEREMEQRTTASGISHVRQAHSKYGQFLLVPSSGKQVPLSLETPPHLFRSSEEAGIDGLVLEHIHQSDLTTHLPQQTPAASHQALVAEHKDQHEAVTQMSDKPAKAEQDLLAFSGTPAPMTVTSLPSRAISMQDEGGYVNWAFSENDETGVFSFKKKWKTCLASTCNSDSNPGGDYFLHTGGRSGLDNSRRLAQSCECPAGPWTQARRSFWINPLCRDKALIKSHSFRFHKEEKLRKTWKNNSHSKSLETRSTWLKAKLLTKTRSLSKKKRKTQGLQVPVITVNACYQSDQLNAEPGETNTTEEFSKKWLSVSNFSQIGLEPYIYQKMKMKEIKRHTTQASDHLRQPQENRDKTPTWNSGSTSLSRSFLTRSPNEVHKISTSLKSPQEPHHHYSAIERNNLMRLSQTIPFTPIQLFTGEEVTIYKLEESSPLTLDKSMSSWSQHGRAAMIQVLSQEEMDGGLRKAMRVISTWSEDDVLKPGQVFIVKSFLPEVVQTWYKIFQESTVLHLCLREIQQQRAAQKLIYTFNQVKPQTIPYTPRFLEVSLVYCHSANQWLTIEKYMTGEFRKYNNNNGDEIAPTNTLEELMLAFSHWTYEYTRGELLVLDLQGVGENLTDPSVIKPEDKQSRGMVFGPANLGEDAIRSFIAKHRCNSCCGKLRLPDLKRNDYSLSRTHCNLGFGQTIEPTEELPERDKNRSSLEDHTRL

Chain of mouse TRPM7 (mTRPM7) fused to a myc tag (mTRPM7-myc) (mouse) (Q923J1 whole entry, the tested form may be a part): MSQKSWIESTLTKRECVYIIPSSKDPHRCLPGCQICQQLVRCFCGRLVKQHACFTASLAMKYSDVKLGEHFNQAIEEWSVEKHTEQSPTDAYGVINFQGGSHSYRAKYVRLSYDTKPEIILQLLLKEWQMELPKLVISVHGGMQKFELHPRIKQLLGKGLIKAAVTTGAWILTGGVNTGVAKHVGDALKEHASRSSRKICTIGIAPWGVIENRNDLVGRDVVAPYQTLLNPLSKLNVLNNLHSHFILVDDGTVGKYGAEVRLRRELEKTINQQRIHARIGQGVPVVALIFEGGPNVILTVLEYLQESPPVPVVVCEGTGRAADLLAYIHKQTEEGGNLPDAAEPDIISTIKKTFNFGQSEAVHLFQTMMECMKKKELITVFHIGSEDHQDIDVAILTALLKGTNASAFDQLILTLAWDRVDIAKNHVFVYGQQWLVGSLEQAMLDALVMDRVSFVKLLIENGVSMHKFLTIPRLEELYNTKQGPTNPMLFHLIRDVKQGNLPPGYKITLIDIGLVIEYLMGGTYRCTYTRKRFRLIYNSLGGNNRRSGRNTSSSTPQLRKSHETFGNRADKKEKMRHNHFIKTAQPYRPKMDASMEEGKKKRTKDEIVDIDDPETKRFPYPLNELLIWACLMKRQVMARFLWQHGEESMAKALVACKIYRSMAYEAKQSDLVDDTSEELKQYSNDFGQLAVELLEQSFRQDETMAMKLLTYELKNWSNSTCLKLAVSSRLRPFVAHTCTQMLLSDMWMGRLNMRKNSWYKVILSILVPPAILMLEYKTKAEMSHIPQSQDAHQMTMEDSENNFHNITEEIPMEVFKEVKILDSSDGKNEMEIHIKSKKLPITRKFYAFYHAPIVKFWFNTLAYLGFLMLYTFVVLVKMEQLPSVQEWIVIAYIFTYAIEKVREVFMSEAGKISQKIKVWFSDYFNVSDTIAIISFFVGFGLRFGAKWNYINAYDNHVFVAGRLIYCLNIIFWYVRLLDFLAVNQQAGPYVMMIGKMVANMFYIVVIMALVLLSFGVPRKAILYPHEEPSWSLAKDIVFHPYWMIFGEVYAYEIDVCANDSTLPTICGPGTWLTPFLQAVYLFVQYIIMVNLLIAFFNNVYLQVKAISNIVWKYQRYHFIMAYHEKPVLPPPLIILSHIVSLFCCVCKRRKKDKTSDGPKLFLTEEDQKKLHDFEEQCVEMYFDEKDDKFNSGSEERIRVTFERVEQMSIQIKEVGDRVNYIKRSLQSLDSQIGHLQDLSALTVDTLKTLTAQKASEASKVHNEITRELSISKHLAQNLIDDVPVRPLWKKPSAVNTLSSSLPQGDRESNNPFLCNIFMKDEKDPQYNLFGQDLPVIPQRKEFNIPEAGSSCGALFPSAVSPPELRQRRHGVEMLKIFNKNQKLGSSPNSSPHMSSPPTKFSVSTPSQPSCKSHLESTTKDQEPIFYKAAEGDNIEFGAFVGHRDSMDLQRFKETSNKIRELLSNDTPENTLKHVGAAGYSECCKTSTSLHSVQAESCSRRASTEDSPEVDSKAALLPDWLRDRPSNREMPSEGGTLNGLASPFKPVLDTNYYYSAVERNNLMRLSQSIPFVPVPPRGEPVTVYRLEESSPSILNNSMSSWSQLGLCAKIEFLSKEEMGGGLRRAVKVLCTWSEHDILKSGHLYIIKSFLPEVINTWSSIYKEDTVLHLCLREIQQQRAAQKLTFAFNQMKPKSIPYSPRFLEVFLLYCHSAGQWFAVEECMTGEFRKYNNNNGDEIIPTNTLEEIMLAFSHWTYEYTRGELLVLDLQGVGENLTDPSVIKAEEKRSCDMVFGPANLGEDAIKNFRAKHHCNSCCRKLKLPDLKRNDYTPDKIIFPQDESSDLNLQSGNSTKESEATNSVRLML
T1 sequence (Q923J1 whole entry): as the sequence (Q923J1 whole entry, the tested form may be a part) above

Nc1ncnc2c1ncn2[C@@H]1O[C@H](COP(=O)(O)OP(=O)(O)OP(=O)(O)O)[C@@H](O)[C@H]1O [Mg·ATP]
IC50 (mTRPM7): 2930 µM

mouse TRPM6 with a C-terminal yellow fluorescent protein tag (mTRPM6-YFP), Q8CIR4 1-2028
whole-cell currents at break-in (pre-activated outward currents) in HEK 293 cells co-transfected with mTRPM6 and mTRPM7, against cells with mTRPM7 alone [1]: 10 fold

c1ccc2c(c1)CCC[C@H]2Nc1nc2ccccc2[nH]1 [NS8593]
whole-cell patch clamp; 10 μM inhibits currents (mTRPM6): We noted that NS8593 caused a rapid irreversible inhibition of mTRPM6
